According to US6864286B2, “Inhibitors of the EGF-receptor tyrosine kinase and methods for their use” (Parker Hughes Institute, priority 1998, dated 2005):
Entries after “also recorded” stand apart in the source; their conditions may differ. Like-named read-outs stand apart in the source and are kept apart here.

Tests used:
HCK = biological target: T1, HCK (Homo sapiens, UniProt P08631); assay: Cell-free HCK immune complex kinase assay; type: biochemical; conditions: for effect on enzymatic activity of HCK: at concentrations as high as 350 μM, HCK from transfected COS7 cells
T1 construct: expressed in transfected cells; host or cells: COS-7 simian kidney cells
Experimental: Immunoprecipitations, immune-complex protein kinase assays, and immunoblotting using the ECL chemiluminescence detection system (Amersham Life Sciences) were conducted as described previously (Vassilev, A., et al. J. Biol. Chem. 1998, in press; Goodman, P. A., et al. J. Biol. Chem. 1998, 273, 17742; Mahajan, S., et al. Mol. Cell. Biol. 1995, 15, 5304; Uckun, F. M., et al. Science 1996, 22, 1096).
For HCK kinase assays, we used HCK-transfected COS-7 cells. The cloning and expression of HCK in COS-7 cells has been described previously (Saouaf, S. J., et al. J. Biol. Chem. 1995, 270, 27072). The pSV7c-HCK plasmid was transfected into 2×10^6 COS-7 cells using Lipofectamine (GIBCO/BRL), and the cells were harvested 48 hours later. The cells were lysed in NP-40 buffer and HCK was immunoprecipitated from the whole cell lysates with an anti-HCK antibody.

MDA-MB-231 cells = assay: In vitro clonogenic assay, MDA-MB-231; type: cell-based, human; conditions: 24 hour treatment; for inhibition at 0.1 µM / inhibition at 10 µM / inhibition at 100 µM: Homo sapiens
Experimental: In order to determine the cytotoxic activity of LFM and its analogs against breast cancer cells, cells in alpha-MEM supplemented with 10% (v/v) fetal calf serum were treated with various concentrations of the compounds for 24 hours at 37° C., washed twice in alpha-MEM, and then used in either MTT assays or in vitro invasion assays, as described hereinafter.
After treatment with LFM analogs, cells were resuspended in clonogenic medium consisting of alpha-MEM supplemented with 0.9% methylcellulose, 30% fetal bovine serum, and 50 μM 2-mercaptoethanol. Cells were plated in duplicate Petri dishes at 100,000 cells/mL/dish and cultured in a humidified 5% CO2 incubator for 7 days. Cancer cell colonies were enumerated on a grid using an inverted phase microscope of high optical resolution (Uckun F. M., et al. Clin. Cancer Res. 1998, 4, 901-912; and Kuo). Results were expressed as % inhibition of clonogenic cells at a particular concentration of the test agent using the formula: % Inhibition=(1-Mean # of colonies [Test]/Mean # of colonies [Control])×100. Furthermore, the dose survival curves were constructed using the percent control survival (=Mean # of colonies[Test]/Mean # of colonies [Control]×100) results for each drug concentration as the data points and the IC50 values were calculated. The IC50 values were determined using an Prism Version II Inplot program (Graphpad Software, Inc., San Diego, Calif.).

[1] = test system: MDA-MB-231 human breast cancer cells; assay: Transfilter cell invasion assay (Matrigel-coated Boyden chambers); type: cell-based
Experimental: The chamber filters were coated with 50 μg/ml of Matrigel matrix, incubated overnight at room temperature under a laminar flow hood and stored at 4° C.
On the day of the experiment, the coated inserts were rehydrated with 0.5 ml serum-free DMEM containing 0.1% bovine serum albumin for 1-2 hours. To study the effects of LFM and LFM-A12 on invasiveness of MDA-MB-231 cells, exponentially growing cells were incubated with each compound at various concentrations ranging from 12.5 RM to 100 μM in 0.1% DMSO overnight. The cells were trypsinized, washed twice with serum-free DMEM containing BSA, counted and resuspended at 1×10^5 cells/ml.
A 0.5 ml cell suspension containing 5×10^4 cells in a serum-free DMEM containing LFM, LFM-A12, or vehicle was added to the Matrigel-coated and rehydrated filter inserts. Next, 750 μl of NIH fibroblast conditioned medium was placed as a chemoattractant in 24-well plates and the inserts were placed in wells and incubated at 37° C. for 48 hours. […] The invasive cells that migrated to the lower side of the filter were fixed, stained with Hema-3 solutions and counted under microscope. No cells were detected at the bottom of the Boyden chambers. Therefore, the number of cells on the lower side of the filters accounted for all cells that had migrated through the filter. Five (5) to ten (10) random fields per filter were counted to determine the mean (±SE) values for the invasive fraction. The invasive fractions of cells treated with LFM or LFM-A12 were compared to those of vehicle (0.1% DMSO in PBS) treated control cells and the percent inhibition of invasiveness was determined using the following formula: % Inhibition=100×(1-Invasive Fraction of Drug-Treated Cells/Invasive Fraction of Control Cells).

[2] = MDA-MB-231, migration for 48 hours, mean of two experiments, read-out: IC50 for inhibition of invasion through Matrigel matrix

T1 sequence (P08631 whole entry, species assumed): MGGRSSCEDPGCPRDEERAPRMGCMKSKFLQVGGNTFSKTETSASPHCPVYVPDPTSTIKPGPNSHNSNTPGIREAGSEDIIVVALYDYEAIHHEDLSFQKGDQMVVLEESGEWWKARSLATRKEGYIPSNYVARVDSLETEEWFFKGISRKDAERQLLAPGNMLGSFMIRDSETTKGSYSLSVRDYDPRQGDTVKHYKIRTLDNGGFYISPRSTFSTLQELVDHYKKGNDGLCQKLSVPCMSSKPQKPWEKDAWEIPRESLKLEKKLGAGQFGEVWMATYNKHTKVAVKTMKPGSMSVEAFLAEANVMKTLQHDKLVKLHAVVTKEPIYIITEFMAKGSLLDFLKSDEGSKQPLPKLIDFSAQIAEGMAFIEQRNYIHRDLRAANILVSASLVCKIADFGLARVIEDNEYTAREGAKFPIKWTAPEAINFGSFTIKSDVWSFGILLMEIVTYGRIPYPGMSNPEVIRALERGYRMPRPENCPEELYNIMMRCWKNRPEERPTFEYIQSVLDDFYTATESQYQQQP

Row | IC50 [1, 2] | IC50 ([1]; MDA-MB-231, read-out: IC50 for inhibition of invasion through Matrigel matrix) | IC50 (HCK; HCK, cell-free, read-out: Inhibition IC50) | Compound | effect on enzymatic activity of HCK (HCK) | inhibition at 0.1 µM (MDA-MB-231 cells; MDA-MB-231, 0.1 μM) | inhibition at 10 µM (MDA-MB-231 cells; MDA-MB-231, 10 μM) | inhibition at 100 µM (MDA-MB-231 cells; MDA-MB-231, 100 μM) | Tumor Cell Colonies/10^5 Cells (MDA-MB-231 cells; MDA-MB-231, 0.1 μM) | Tumor Cell Colonies/10^5 Cells (MDA-MB-231 cells; MDA-MB-231, 10 μM) | Tumor Cell Colonies/10^5 Cells (MDA-MB-231 cells; MDA-MB-231, 100 μM) | % Inhibition of clonogenic cells (MDA-MB-231 cells; MDA-MB-231, 100 μM, 100 µM)
1 | 97 µM | 97 µM | – | CC(O)=C(C#N)C(=O)Nc1ccc(C(F)(F)F)cc1 [LFM, α-Cyano-β-hydroxy-β-methyl-N-[4-(trifluoromethyl)phenyl]-propenamide, reference compound] | did not affect the enzymatic activity; also recorded: lack of inhibition | 16.2% | 44.2% | 74.2% | 964 | 642 | 297 | –
2 | 28.4 µM | – | > 350 µM | C/C(O)=C(\C#N)C(=O)Nc1ccc(OC(F)(F)F)cc1 [LFM-A12, α-Cyano-β-hydroxy-β-methyl-N-[4-(trifluoromethoxy)phenyl]-propenamide] | did not affect the enzymatic activity; also recorded: lack of inhibition | 42% | 55.2% | > 99% | 667 | 515 | 0 | >99%
